According to patent US20230167450A1, “BIFUNCTIONAL MOLECULES AND METHODS OF USING THEREOF” (Flagship Pioneering, Inc., priority 2020, published 2023):

Test system: mRNA encoding Renilla Luciferase protein
Test: Renilla luciferase activity (protein expression) in HEK293T cells co-transfected with pRL-TK target plasmid and BTK-fused effector plasmid
Format: cell-based, human
Conditions: ASO conjugated at the 5′ end with Ibrutinib-MPEA; effector fused to BTK
Description: The Ibrutinib-conjugated ASOs described in Example 4a (shown in Table 5 below) were co-transfected into human cells along with the plasmid expressing the target Renilla luciferase described in example 4b, as well as the plasmid expressing BTK-YTHDF1 effector protein described example 4c.
A 96-well cell culture plate with 70% confluent HEK293T cells was transfected with the 50 nanograms of the target luciferase plasmid and 100 nanograms of the plasmid expressing the BTK-YTHDF1 effector, using Lipofectamine 2000 (Thermo Fisher Scientific) according to the manufacturer's instruction. After 24 hours, targeting (test) and non-targeting (control) ASOi were transfected separately into the cells at the final concentration of 100 nM using Lipofectamine RNaiMax (Thermo Fisher Scientific) according to the manufacturer's instruction. For each condition, cells were allowed to recover and are subsequently analyzed 48 hours after the transfection of ASOis.
Pierce Renilla Luciferase Glow Assay Kit (Thermo Fisher Scientific) was used for measuring the luciferase activity corresponding to protein expression in each condition, according to manufacturer's instruction. The luminescence was measured and quantified by a GloMax plate reader and its integrated software (Promega Corp.), according to manufacturer's instruction (FIG. 4). […]

ASO3: Rluc RNA-targeting ASO, TTCTGCAGCTTAAGTTCGA, 2′-MOE phosphorothioate; tested conjugated at 5′ end with Ibrutinib-MPEA (*/i2MOErT/*/i2MOErT/*/i2MOErC/*/i2MOErT/*/i2MOErG/*/i2MOErC/*/i2MOErA/*/i2MOErG/*/i2MOErC/*/i2MOErT/*/i2MOErT/*/i2MOErA/*/i2MOErA/*/i2MOErG/*/i2MOErT/*/i2MOErT/*/i2MOErC/*/i2MOErG/*/32MOErA/; as printed in the source, key not given here)
Effector(s) increasing translation: YTHDF1, EIF4E

B1: ASO1: Non-targeting (scramble) control ASO, …, 2′-MOE phosphorothioate; tested conjugated at 5′ end with Ibrutinib-MPEA (nucleic acid)
chain: CCUUGAAAUCCAUGACGCAGGGAGAAUUGCGUCAUUUAAAGCCUAGUUAACGCAUUUACUAAACGCAGACGAAAAUGGAAAGAUUAAUUGGGAGUGGUAGGAUGAAACAAUUUGGAGAAGAUAGAAGUUUGAAGUGGAAAACUGGAAGACAGAAGUACGGGAAGGCGAA
modifications: Cy5-labeled IVT RNA
Effector(s) increasing translation: YTHDF1, EIF4E
